# From PubChem BioAssay (NCI)
# “And” between values parts separate entries of the source, which are not always exact repeats. Identical values can stand only once.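 A five-concentration, 48-hour dose response in 96-well plates underlies each endpoint, interpolated linearly between surrounding concentrations. At the GI50, growth is halved. TGI is the concentration that stops growth completely.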
# How the values were obtained:
# Test in all cases: NCI-60 cell line screen, 48 h
# [1] = tested on: CCRF-CEM leukemia
# [2] = tested on: NCI/ADR-RES ovarian
# [3] = tested on: SF-539 CNS
# [4] = tested on: HCC-2998 colon
# [5] = tested on: SK-MEL-2 melanoma
# [6] = tested on: MALME-3M melanoma
# [7] = tested on: NCI-H226 lung
# [8] = tested on: SK-MEL-5 melanoma
# [9] = tested on: LOX IMVI melanoma
# [10] = tested on: SF-268 CNS
Compound,TGI [1],TGI [2],TGI [3],TGI [4],TGI [5],TGI [6],TGI [7],TGI [8],TGI [9],TGI [10],GI50 [2] [µM],GI50 [3] [µM],GI50 [5] [µM],GI50 [6] [µM],GI50 [7] [µM],GI50 [1] [µM],GI50 [4] [µM],GI50 [8] [µM],GI50 [9] [µM],GI50 [10] [µM]
COc1ccc(Cc2nc3cc(Cl)ccc3o2)cc1,> 100 µM,76.9 µM,> 100 µM,56.8 µM,63.8 µM,> 100 µM,> 100 µM,31.1 µM,> 100 µM,> 100 µM,–,–,–,–,–,–,–,–,–,–
CCOc1cc(NC(C)=O)ccc1C(=O)N/N=C/c1ccco1,> 100 µM,> 100 µM,> 100 µM,> 100 µM,> 100 µM,> 100 µM,> 100 µM,> 100 µM,> 100 µM,> 100 µM,–,–,–,–,–,–,–,–,–,–
C=C1CCCC(C)(C)[C@@H]1CC/C(C)=C/Cn1c2cccc(=O)c-2nc2ccccc21,13 µM,–,9.57 µM and 3.55 µM,4.53 µM,–,> 100 µM,> 100 µM and 21.6 µM,13.8 µM,2.45 µM,3.71 µM,4.23,3.01,6.62,5.76,21.2,–,–,–,–,–
Cc1ccc2c(=O)c(-c3nnsn3)c[nH]c2n1,> 100 µM,> 100 µM,–,–,> 100 µM,> 100 µM,> 100 µM,> 100 µM,> 100 µM,> 100 µM,–,–,–,–,–,–,–,–,–,–
COc1cc(/C=C2\N=C(c3ccccc3)N(c3nc4c(Cl)cc(Cl)cc4s3)C2=O)ccc1O,30.4 µM,> 100 µM,> 100 µM,37.8 µM,55.1 µM,–,–,> 100 µM,53.6 µM,> 100 µM,–,–,–,–,–,–,–,–,–,–
CC(Br)C(=O)c1ccc2cc(Br)c3ccccc3c2c1 (stereo unspecified),14.6 µM,35 µM,–,29.6 µM,26.5 µM,28.8 µM,–,27.3 µM,20.4 µM,32.4 µM,–,–,–,–,–,–,–,–,–,–
Clc1ccc(NCc2nnc(COc3ccc(OCc4nnc(CNc5ccc(Cl)cc5)o4)c(Cl)c3)o2)cc1,44.8 µM,68.5 µM,–,> 100 µM,> 100 µM,> 100 µM,> 100 µM,53.6 µM,> 100 µM,> 100 µM,–,–,–,–,–,–,–,–,–,–
NC(CCc1ccccc1)(C(=O)O)c1ccccc1 (stereo unspecified),> 100 µM,> 100 µM,–,> 100 µM,> 100 µM,> 100 µM,> 100 µM,> 100 µM,> 100 µM,> 100 µM,–,–,–,–,–,–,–,–,–,–
O=P(O)(O)OP(=O)(O)O,> 100 µM,> 100 µM,> 100 µM,> 100 µM,> 100 µM,> 100 µM,–,> 100 µM,> 100 µM,> 100 µM,–,–,–,–,–,–,–,–,–,–
O=C(N/N=C\c1ccc([N+](=O)[O-])cc1)Nc1ccccc1,> 100 µM,> 100 µM,–,–,> 100 µM,> 100 µM,> 100 µM,> 100 µM,–,–,–,–,–,–,–,–,–,–,–,–
CN(C)c1ccc(/C=C2\C[C@H]3[C@@H]4CCC5=CC(=O)CC[C@]5(C)[C@H]4CC[C@]3(C)C2=O)cc1,–,> 100 µM,> 100 µM,–,> 100 µM,72.9 µM,> 100 µM,32.3 µM,41.7 µM,> 100 µM,–,–,–,–,–,–,–,–,–,–
CN(C)C/C=C(/c1ccc(Br)cc1)c1cccnc1,–,> 100 µM,> 100 µM,29.8 µM,37.6 µM,44.1 µM,> 100 µM,45.5 µM,–,> 100 µM,–,–,–,–,–,–,–,–,–,–
Cc1cc(O)c2c(c1O)C(=O)c1c(O)ccc(O)c1C2=O,> 100 µM,> 100 µM,> 100 µM,> 100 µM,> 100 µM,> 100 µM,> 100 µM,> 100 µM,> 100 µM,> 100 µM,–,–,–,–,–,–,–,–,–,–
COc1cc(/C=C2/C[C@H]3[C@@H]4CCC5=CC(=O)CC[C@]5(C)[C@H]4CC[C@]3(C)NC2=O)cc(OC)c1OC,64.4 µM,> 100 µM,–,> 100 µM,> 100 µM,72.2 µM,> 100 µM,52.4 µM,–,> 100 µM,–,–,–,–,–,–,–,–,–,–
C[C@H](Nc1ccc(C#N)n(C)c1=O)c1cc2cc(Cl)ccc2[nH]c1=O,> 100 µM,> 100 µM,> 100 µM,> 100 µM,94 µM,> 100 µM,> 100 µM,29.1 µM,> 100 µM,> 100 µM,26.1,40.2,26.7,25.3,23.4,24.5,33.5,15.6,33.1,22.7
CC(C)(C)OC(=O)N1C(C2=COc3ccccc3O2)=COc2cccnc21,–,4.7 µM,4.01 µM,3.16 µM,3.96 µM,2.76 µM,4.31 µM,3.17 µM,3.36 µM,3.93 µM,–,–,–,–,–,–,–,–,–,–
CCCCCCOC(=O)C(N)Cc1ccc(OC)cc1 (stereo unspecified),> 100 µM,> 100 µM,> 100 µM,–,> 100 µM,> 100 µM,> 100 µM,> 100 µM,> 100 µM,> 100 µM,–,–,–,–,–,–,–,–,–,–
O=C(COC(c1ccc(F)cc1)c1ccc(F)cc1)N1CCN(CCCc2ccccc2)CC1,> 100 µM,12.8 µM,17.3 µM,13 µM,15.4 µM,17.4 µM,8.73 µM,6.9 µM,16.2 µM,16.4 µM,–,–,–,–,–,–,–,–,–,–
CCN(CC)/[N+]([O-])=N/OC,> 100 µM,–,> 100 µM,> 100 µM,> 100 µM,–,> 100 µM,> 100 µM,> 100 µM,> 100 µM,–,–,–,–,–,–,–,–,–,–
COc1cccc(/C=N/[N-]C(N)=O)c1[O-].[Cu+2].[OH3+].c1cnc2c(c1)ccc1cccnc12,66.2 µM,–,21.6 µM,49.1 µM,32.1 µM,33.3 µM,42.5 µM,16.1 µM,48.2 µM,60.7 µM,–,–,–,–,–,–,–,–,–,–

Compound,TGI [1],TGI [2],TGI [3],TGI [4],TGI [5],TGI [6],TGI [7],TGI [8],TGI [9],TGI [10],GI50 [2] [µM],GI50 [3] [µM],GI50 [5] [µM],GI50 [6] [µM],GI50 [7] [µM],GI50 [1] [µM],GI50 [4] [µM],GI50 [8] [µM],GI50 [9] [µM],GI50 [10] [µM]
CCOC(=O)C(Cc1ccc(OC(=O)c2ccc(OC)cc2OC)cc1)NC(=O)C(F)(F)F (stereo unspecified),83.8 µM,79.4 µM,54.4 µM,31.2 µM,57.5 µM,59.9 µM,> 100 µM,> 100 µM,36 µM,> 100 µM,–,–,–,–,–,–,–,–,–,–
COC1OC(C(=O)CP(=O)(OC)OC)C(OCc2ccccc2)C(OCc2ccccc2)C1OCc1ccccc1 (stereo unspecified),> 100 µM and 96.3 µM,42.6 µM and 46 µM,33 µM and 31.9 µM,31.5 µM and 29.7 µM,30.7 µM and 31.3 µM,32.4 µM and 34.5 µM,39.5 µM and 35.1 µM,28.6 µM and 28.7 µM,33.1 µM and 32.6 µM,37.9 µM and 33.5 µM,–,–,–,–,–,–,–,–,–,–
O=CC(O)C(O)C(O)COc1cc(CO)cc2c1C(=O)c1ccccc1C2=O (stereo unspecified),> 100 µM,–,> 100 µM,> 100 µM,> 100 µM,> 100 µM,> 100 µM,> 100 µM,> 100 µM,> 100 µM,–,–,–,–,–,–,–,–,–,–
C/C(=C\CNc1ncnc2nc(Cl)[nH]c12)CO,> 100 µM,> 100 µM,> 100 µM,> 100 µM,–,> 100 µM,> 100 µM,> 100 µM,> 100 µM,> 100 µM,–,–,–,–,–,–,–,–,–,–
CC(C)(C)OC(=O)N1C[C@H](CC(=O)OCc2ccccc2)C[C@H]1C(=O)OCC(Cl)(Cl)Cl,> 50 µM,> 50 µM,> 50 µM,45.3 µM,23 µM,25.3 µM,29.1 µM,8.13 µM,> 50 µM,> 50 µM,–,–,–,–,–,–,–,–,–,–
C/C=C/C=C/C1=NN(c2cccc(S(=O)(=O)O)c2)C2(C1)C(Cl)C(=O)N2c1nc2ccccc2s1 (stereo unspecified),13.1 µM,> 82.7 µM,27.8 µM,31.5 µM,30.2 µM,32.7 µM,32 µM,25.1 µM,24.5 µM,38.4 µM,–,–,–,–,–,–,–,–,–,–
CCOC(=O)C(C)OC(=O)c1ccc(C)cc1 (stereo unspecified),> 100 µM,–,> 100 µM,> 100 µM,> 100 µM,> 100 µM,–,> 100 µM,> 100 µM,> 100 µM,–,–,–,–,–,–,–,–,–,–
O=c1oc2c(ccc3occc32)c(N2CCCCC2)c1-c1ccccc1,> 59.5 µM,> 100 µM,> 100 µM,> 100 µM,> 100 µM,> 100 µM,> 100 µM,> 100 µM,> 100 µM,> 100 µM,–,–,–,–,> 100,–,–,–,–,–
CCOC(=O)c1c(Nc2ccccc2)sc2cccnc12,71.5 µM,67.8 µM,23.6 µM,77.8 µM,49.5 µM,53.4 µM,57.1 µM,24.3 µM,44.6 µM,64.1 µM,–,–,–,–,–,–,–,–,–,–
Cc1cc(N2CCOCC2)nc(N(CCCNc2ccnc3cc(Cl)ccc23)Cc2ccc3c(c2)OCO3)n1,2.1 µM,–,–,–,2.66 µM,–,–,2.88 µM,–,–,–,–,1.26,–,–,0.355,–,1.54,–,–
CC(C)c1ccc2c(c1)[C@@]1(C)CC[C@H](C)C(C)(C)C1CC2 (stereo partly specified),47.7 µM,36.6 µM,39.6 µM,41.3 µM,63.3 µM,37 µM,32.3 µM,41.4 µM,32 µM,36 µM,–,–,–,–,–,–,–,–,–,–
CC1=NN(c2cccc(Cl)c2)C(=N/c2nc3ccccc3s2)/C1=C\C=C\c1ccccc1,> 100 µM,> 100 µM,> 100 µM,–,–,–,> 100 µM,59.2 µM,> 100 µM,> 100 µM,–,–,–,–,–,–,–,–,–,–
NC(N)=NS(=O)(=O)c1ccc(Nc2c3ccccc3nc3c(C(=O)N4CCN(CCO)CC4)ccc(Cl)c23)cc1,> 100 µM,–,> 100 µM,> 100 µM,> 100 µM,> 100 µM,> 100 µM,> 100 µM,–,> 100 µM,–,–,–,–,–,–,–,–,–,–
CCOC(=O)C(=CNC(Cc1c[nH]c2ccccc12)C(=O)OC)C(=O)OCC (stereo unspecified),> 100 µM,–,> 100 µM,–,> 100 µM,> 100 µM,> 100 µM,> 100 µM,> 100 µM,> 100 µM,–,–,–,–,–,–,–,–,–,–
O=C(CSc1nc2ccc(Cl)cc2c(=O)n1-c1ccccc1)N=Nc1c(O)[nH]c2ccc(F)cc12,6.34 µM,8.44 µM,15.2 µM,8.73 µM,5.3 µM,11.6 µM,12.6 µM,10.3 µM,3.22 µM,8.83 µM,–,–,–,–,–,–,–,–,–,–
COC(=N)C(C)C,> 100 µM,–,> 100 µM,> 100 µM,–,> 100 µM,> 100 µM,> 100 µM,> 100 µM,> 100 µM,–,–,–,–,–,–,–,–,–,–
CC(C)=CCC/C(C)=C/CC/C(C)=C/[C@@H]1[C@@H](CO)[C@]1(C)CC/C=C(\C)CCC=C(C)C,45.2 µM,55 µM,59 µM,–,> 100 µM,> 100 µM,44.5 µM,> 100 µM,23.8 µM,40.8 µM,–,–,–,–,–,–,–,–,–,–
CC(C)(C)c1ccc(O)c(Br)c1,> 100 µM,> 100 µM,> 100 µM,> 100 µM,> 100 µM,> 100 µM,> 100 µM,> 100 µM,> 100 µM,> 100 µM,–,–,–,–,–,–,–,–,–,–
COC(=O)c1c(O)ccc2c1c1c(n2Cc2ccccn2)C(=O)c2ccccc2C1,> 100 µM,> 100 µM,> 100 µM,–,> 100 µM,> 100 µM,> 100 µM,> 100 µM,> 100 µM,> 100 µM,–,–,–,–,–,–,–,–,–,–
